What all share (type): functional
One assay relates to Candida albicans. The assay can be described thus: Antimicrobial activity against Candida albicans ATCC 10231 at 500 ug/disk after 24 hrs by agar disk diffusion method. (In agar diffusion tests the substance spreads into inoculated agar from a disc or well.)
A further assay relates to Staphylococcus aureus. The assay can be described thus: Antimicrobial activity against Staphylococcus aureus ATCC 25923 at 500 ug/disk after 24 hrs by agar disk diffusion method.
The subject of another assay is Bacillus subtilis. Nature of the assay: Antimicrobial activity against Bacillus subtilis ATCC 6633 at 500 ug/disk after 24 hrs by agar disk diffusion method.

The source made the active and inactive calls. The calls are words filed in the database; no cut-off is given here.

As to `C/C1=C/C[C@H](C(C)(C)N)CC/C(C)=C\CC1`, the zone of inhibition at 500 µg/disc came out at 27 mm with Candida albicans (ATCC 10231, 24 h, read-out: IZ); 23 mm with Staphylococcus aureus (ATCC 25923, 24 h, read-out: IZ); 22 mm with Bacillus subtilis (ATCC 6633, 24 h, read-out: IZ).
As to `C/C1=C/C[C@H](C(C)(C)NC(=O)NC(C)(C)[C@H]2C/C=C(/C)CC/C=C(/C)CC2)CC/C(C)=C\CC1`, the outcome in the assay on Candida albicans, with Staphylococcus aureus and with Bacillus subtilis was inactive.

The values are drawn from ChEMBL document CHEMBL1151158, “New nitrogenous Germacranes from a Thai marine sponge, Axinyssa n. sp” (2004).
